Test results published in the supplement of paper PMC10307832.

Assays:
Assay in all cases: relative viability (nuclei count vs DMSO), 5 days (fraction); higher = more cells survive
[1] = compound: CC(C)C[C@H](NC(=O)[C@H](CCc1ccccc1)NC(=O)CN1CCOCC1)C(=O)N[C@@H](Cc1ccccc1)C(=O)N[C@@H](CC(C)C)C(=O)[C@@]1(C)CO1 [Carfilzomib] + C[C@]1(O)C[C@@H](c2nc(-c3ccc4ccc(-c5ccccc5)nc4c3)c3c(N)nccn32)C1 [Linsitinib] (partner 1 µM)
Procedure, shortened: (§1)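 A single step with final 0.05% Triton X-100, 1% formaldehyde and 1 ug/ml Hoechst fixed the cells and stained nuclei 5 days after treatment. Lung cancer cell lines in 1536-well plates had been treated by pin tool the day after seeding with one drug alone or a fixed anchor-drug dose plus five library-drug doses (not always all listed) in √10 steps, and nuclei were counted on 4× images. Relative viability is the ratio of nuclei in treated wells to nuclei in vehicle wells, taken as the median of duplicate plates.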

[2] = compound: O=C(c1cc(Cc2n[nH]c(=O)c3ccccc23)ccc1F)N1CCN(C(=O)C2CC2)CC1 [Olaparib] + Nc1nc2[nH]cc(CCc3ccc(C(=O)N[C@@H](CCC(=O)O)C(=O)O)cc3)c2c(=O)[nH]1 [Pemetrexed] (partner 0.2 µM)
Procedure, shortened: as §1

[3] = compound: C[C@@H](Oc1cc(-c2cnn(C3CCNCC3)c2)cnc1N)c1c(Cl)ccc(F)c1Cl [Crizotinib] + CC1(C)CCC(c2ccc(Cl)cc2)=C(CN2CCN(c3ccc(C(=O)NS(=O)(=O)c4ccc(N[C@H](CCN5CCOCC5)CSc5ccccc5)c(S(=O)(=O)C(F)(F)F)c4)cc3)CC2)C1 [Navitoclax] (partner 0.5 µM)
Procedure, shortened: as §1

[4] = compound: C[C@@H](Oc1cc(-c2cnn(C3CCNCC3)c2)cnc1N)c1c(Cl)ccc(F)c1Cl [Crizotinib] + CS(=O)(=O)N1CCN(Cc2cc3nc(-c4cccc5[nH]ncc45)nc(N4CCOCC4)c3s2)CC1 [Pictilisib] (partner 1 µM)
Procedure, shortened: as §1

NCI-H1793
relative viability ([1]; first compound 0.003162 µM): 0.737 | relative viability ([1]; first compound 0.01 µM): 0.761 | relative viability ([1]; first compound 0.03162 µM): 0.939 | relative viability ([1]; first compound 0.1 µM): 0.585 | relative viability ([2]; first compound 0.08 µM): 0.647 | relative viability ([2]; first compound 0.253 µM): 0.652 | relative viability ([2]; first compound 2.53 µM): 0.841 | relative viability ([2]; first compound 8 µM): 0.79 | relative viability ([3]; first compound 0.01 µM): 0.362 | relative viability ([3]; first compound 0.03162 µM): 0.486 | relative viability ([3]; first compound 0.1 µM): 0.384 | relative viability ([3]; first compound 1 µM): 0.529 | relative viability ([4]; first compound 0.01 µM): 0.355 | relative viability ([4]; first compound 0.03162 µM): 0.385 | relative viability ([4]; first compound 0.1 µM): 0.339 | relative viability ([4]; first compound 1 µM): 0.364
